Data on three compounds can be found in patent publication US4215069A, “Arylthiovinylcyclopropanecarboxylate intermediates” (FMC Corporation, priority 1979, dated 1980).

For data set [1] the following is noted: prior art, Elliott, et al.; cited from earlier work.
Data set [2] concerns Southern armyworm. As to the kind of experiment: 7-day residual contact activity against southern armyworm (percent kill). It counts as in vivo. Conditions: Spodoptera eridania, 168 h, treated surface aged seven days in light and air, read-out: Percent Kill AW, 7-day residual activity. The protocol: (§1) The test compound was dissolved in a small amount of acetone, and the acetone solution was dispersed in water containing one drop of isooctylphenyl polyethoxyethanol to make a solution having 1250 ppm (w/w) active ingredient. Aliquots of this solution were diluted with an appropriate amount of water to provide solutions containing various concentrations of active ingredient. Test organisms and techniques were as follows: the activity against Mexican bean beetle (Epilachna varivestis Muls.) and southern armyworm (Spodoptera eridania [Cram.]) was evaluated by dipping the leaves of pinto bean plants into the test solution and infesting the leaves with the appropriate immature-form insects when the foliage had dried. The activity against the pea aphid (Acyrthosiphon pisum [Harris]) was evaluated on broad bean plants whose leaves were dipped before infestation with adult aphids. The activity against twospotted spider mites (Tetranychus urticae Koch) was evaluated on pinto bean plants whose leaves were dipped after infestation with adult mites. The activity against the milkweed bug (Oncopeltus faciatus [Dallas]) was evaluated by spraying the test solutions into glass dishes or jars containing the adult insects. Following application of the compound and infestation the tests were maintained in a holding room at 80° F. and 50% relative humidity for an exposure period of 72 hours. At the end of this time the dead and living insects or mites were counted and the percent kill was calculated. Results of these tests are summarized in Table I. Most of the compounds tested were active against all the insects.
(§2) The residual contact activity of certain of the compounds was determined on the same organisms using the techniques described above, except that in each case the treated surface was allowed to dry and was exposed to normal light and air for seven days before introduction of the mites or insects. The seven day residual activity was minimal for the mite but substantial against the remaining organisms. Again, the remarkable activity of some of these compounds against milkweed bug and Mexican bean beetle was noted.

Data set [3] relates to Milkweed bug. As to the kind of experiment: 7-day residual contact activity against milkweed bug (percent kill). It counts as in vivo, Oncopeltus faciatus. The note with it: Oncopeltus fasciatus, 168 h, treated surface aged seven days in light and air, read-out: Percent Kill MWB, 7-day residual activity. As for the experimental part: as §1, §2
For data set [4], the system named is Mexican bean beetle (Epilachna varivestis Muls.). As to the kind of experiment: Initial contact activity against Mexican bean beetle (percent kill). The class given is in vivo. The note with it: 72 hours exposure, read-out: Percent Kill MBB, initial activity. As for the experimental part:
as §1

Data set [5] relates to Pea aphid. As to the kind of experiment: 7-day residual contact activity against pea aphid (percent kill). It counts as in vivo. Conditions: Acyrthosiphon pisum, 168 h, treated surface aged seven days in light and air, read-out: Percent Kill PA, 7-day residual activity. As for the experimental part: as §1, §2
The subject of data set [6] is twospotted spider mites (Tetranychus urticae Koch). As to the kind of experiment: Initial contact activity against twospotted spider mite (percent kill). The class given is in vivo. The note with it: 72 hours exposure, read-out: Percent Kill SM, initial activity. As for the experimental part:
as §1

Data set [7] deals with Twospotted spider mite. Kind of data set: 7-day residual contact activity against twospotted spider mite (percent kill). It counts as in vivo. Conditions: Tetranychus urticae, 168 h, treated surface aged seven days in light and air, read-out: Percent Kill SM, 7-day residual activity. As for the experimental part:
as §1, §2

The subject of data set [8] is pea aphid (Acyrthosiphon pisum [Harris]). Kind of data set: Initial contact activity against pea aphid (percent kill). The class given is in vivo. The note with it: 72 hours exposure, read-out: Percent Kill PA, initial activity. As for the experimental part:
as §1

The test system of data set [9] is southern armyworm (Spodoptera eridania [Cram.]). As to the kind of experiment: Initial contact activity against southern armyworm (percent kill). It counts as in vivo. Conditions: 72 hours exposure, read-out: Percent Kill AW, initial activity. As for the experimental part: as §1
Data set [10] deals with milkweed bug (Oncopeltus faciatus [Dallas]). As to the kind of experiment: Initial contact activity against milkweed bug (percent kill). The note with it: 72 hours exposure, read-out: Percent Kill MWB, initial activity. It counts as in vivo. As for the experimental part:
as §1

For data set [11], the system named is Mexican bean beetle. Kind of data set: 7-day residual contact activity against Mexican bean beetle (percent kill). It counts as in vivo. Conditions: Epilachna varivestis, 168 h, treated surface aged seven days in light and air, read-out: Percent Kill MBB, 7-day residual activity. As for the experimental part:
as §1, §2

SMILES strings stand for the structures.

On to `CC1(C)C(C=C(Cl)Cl)C1C(=O)OCc1cccc(Oc2ccccc2)c1` (stereo not drawn) [3-phenoxybenzyl 3-(β,β-dichlorovinyl)-2,2-dimethylcyclopropanecarboxylate], for which, in [1], the “resistance to photo-oxidative degradation in words” value was “remarkably resistent to photo-oxidative degradation”.
For the compound `CC1(C)C(C=C(Cl)Sc2ccccc2)C1C(=O)OC(C#N)c1cccc(Oc2ccccc2)c1` (mixture of isomers) [Example 3, α-cyano-3-phenoxybenzyl cis,trans-3-[2-(E,Z)-chloro-2-phenylthioethenyl]-2,2-dimethylcyclopropanecarboxylate], the activity at 20 ppm in data set [2] was determined as 62%. In addition, the activity at 78 ppm in [2] is 56%; in [3] (78 ppm), 70%; in data set [5] (78 ppm), 50%; in data set [11], 100%. The activity at 312 ppm in [2] is 53%; in [3], 85%; in [5] it was 65%. The activity at 1250 ppm in [2] was 100%; in data set [3] it was 100%; in [5], 100%; in [7], 0%; in data set [11], 97%. The mortality at 1.2 ppm in [4] (1.2 ppm) turned out to be 80%; in [9] (1.2 ppm), 0%. Moreover, the mortality at 5 ppm is 100% in [4] and 0% in [9]. In addition, the mortality at 20 ppm in data set [4] is 92%; in [6] (20 ppm) it was 0%; in [8] (20 ppm) it was 27%; in [9], 0%; in data set [10] (20 ppm) it was 70%. Moreover, the mortality at 78 ppm in data set [4] came out at 92%; in data set [6] (78 ppm), 0%; in data set [8], 60%; in data set [9] it was 75%; in data set [10], 100%. The mortality at 1250 ppm in data set [4] amounted to 94%; in data set [6], 49%; in [8] it was 100%; in data set [9] it was 100%; in [10], 100%. Further, the figures for the mortality at 312 ppm in [6], in data set [8] and in [10] were 0%, 85% and 100%, respectively. In addition, in [11] (2.5 ppm), the activity at 2.5 ppm is 66%. Moreover, the activity at 10 ppm in data set [11] (10 ppm) amounted to 75%. The activity at 39 ppm in data set [11] (39 ppm) amounted to 100%.
Take `CC1(C)C(C=C(Cl)Sc2ccccc2)C1C(=O)OCc1cccc(Oc2ccccc2)c1` (mixture of isomers) [Example 4, 3-phenoxybenzyl cis,trans-3-[2-(E,Z)chloro-2-phenylthioethenyl]-2,2-dimethylcyclopropanecarboxylate]: the figures for the activity at 20 ppm in data set [2] and in data set [11] (20 ppm) were 0% and 89%, respectively. In addition, the activity at 78 ppm is 5% in data set [2] and 100% in data set [11]. Besides, the activity at 312 ppm in data set [2] worked out at 55%; in [3], 20%; in [5] it was 0%; in [11] (312 ppm), 100%. The activity at 1250 ppm in [2] is 95%; in data set [3], 100%; in data set [5], 85%; in [7], 0%; in data set [11] it was 100%. The mortality at 5 ppm in data set [4] is 100%; in data set [9] it was 11%. Further, the mortality at 20 ppm was found to be 94% in data set [4] and 0% in data set [9]. Moreover, the mortality at 78 ppm in data set [4] came to 100%; in data set [8], 75%; in [9] it was 68%; in data set [10], 10%. In addition, the mortality at 312 ppm in [4] (312 ppm) was 100%; in [6], 31%; in data set [8], 100%; in data set [9] (312 ppm) it was 89%; in data set [10] it was 90%. Moreover, the mortality at 1250 ppm in data set [4] was determined as 95%; in [6], 42%; in data set [8], 100%; in [9], 100%; in data set [10] it was 100%.
